The test system of one experiment is SJSA-1. The experiment is described as follows: Antiproliferative activity against human SJSA1 cells.
The target of another experiment is MDA-MB-435. The experiment is described as follows: Antiproliferative activity against human MDA435 cells.
A further experiment has as its target SW480. The experiment can be described thus: Antiproliferative activity against human SW480 cells.
For a further experiment, the target named is RKO. The experiment is described as follows: Antiproliferative activity against human RKO cells.
The next experiment concerns the target HCT-116. The experiment can be described thus: Antiproliferative activity against human HCT116 cells.

In general, IC50 refers to the concentration needed to halve the response being measured. A low value points to greater potency.

On to `O=C1N=C(N[C@@H](CO)Cc2ccccc2)SC1=Cc1ccc2ncccc2c1` [(R,Z)-2-(1-hydroxy-3-phenylpropan-2-ylamino)-5-(quinolin-6-ylmethylene)thiazol-4(5H)-one], for which the IC50 is 3240 nM in the experiment with SJSA-1; 2030 nM on MDA-MB-435; 3070 nM at SW480; 1390 nM on RKO; 1580 nM against HCT-116.
In turn, `O=C1N=C(N[C@@H]2C[C@H]2c2ccccc2)SC1=Cc1ccc2ncccc2c1` [(Z)-2-((1R,2S)-2-phenylcyclopropylamino)-5-(quinolin-6-ylmethylene)thiazol-4(5H)-one] had an IC50 in the experiment on SJSA-1 of 1850 nM.
In the experiment on SJSA-1, `O=C1N=C(NCc2cccs2)S/C1=C/c1ccc2ncccc2c1` came in with an IC50 of 4550 nM. This IC50 is about 2.5-fold higher than that of the molecule before.
